Patent publication US20240307419A1, “CONFORMATIONALLY-CONSTRAINED INHIBITORS OF 3C OR 3C-LIKE PROTEASES” (priority 2021, published 2024)

Columns and labels:
SARS-CoV-2 3CLpro = SARS-CoV-2 3CLpro (Severe acute respiratory syndrome coronavirus 2 (2019-nCoV) (SARS-CoV-2), UniProt P0DTD1); experiment: biochemical; type: biochemical; conditions: for IC50: read-out: IC50
[1] = test system: Huh-7, CRFK, or CCL1 cells
MERS-CoV 3CLpro = MERS-CoV 3CLpro (Middle East respiratory syndrome-related coronavirus (isolate United Kingdom/H123990006/2012) (MERS-CoV) (Betacoronavirus England 1), UniProt K9N7C7); type: biochemical
MERS-CoV 3CLpro, sequence (K9N7C7 3248-3553 limits assumed): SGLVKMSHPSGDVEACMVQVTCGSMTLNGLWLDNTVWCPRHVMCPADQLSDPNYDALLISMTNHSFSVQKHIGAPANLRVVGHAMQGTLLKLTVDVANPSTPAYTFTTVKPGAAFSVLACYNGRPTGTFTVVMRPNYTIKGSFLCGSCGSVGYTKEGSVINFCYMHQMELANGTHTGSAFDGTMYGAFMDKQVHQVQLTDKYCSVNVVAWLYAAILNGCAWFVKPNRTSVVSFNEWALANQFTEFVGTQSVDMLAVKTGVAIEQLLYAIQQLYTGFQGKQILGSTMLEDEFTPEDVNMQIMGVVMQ

SARS-CoV-2 replicon = experiment: microbe, parasite or virus in culture; type: cell-based; conditions: Severe acute respiratory syndrome coronavirus 2, HEK-293T, 30 h, read-out: EC50, SARS-CoV-2 replicon assay
CRFK cells = conditions: cat

Structure (SMILES)	decrease in potency compared to 2k/3k (SARS-CoV-2 3CLpro)	IC50 (SARS-CoV-2 3CLpro)	CC50 [1]	IC50 (MERS-CoV 3CLpro)	EC50 (SARS-CoV-2 replicon)	CC50 (CRFK cells)
CC(C)C[C@H](NC(=O)OCC12CC3CC(CC(O)(C3)C1)C2)C(=O)N[C@@H](C[C@H]1CCNC1=O)C(O)S(=O)(=O)[O-].[Na+] (stereo partly drawn) [Compound 3n, Sodium (2S)-1-hydroxy-2-((S)-2-(((((1r,3R,5R,7S)-3-hydroxyadamantan-1-yl)methoxy)carbonyl)amino)-4-methylpentanamido)-3-((S)-2-oxopyrrolidin-3-yl)propane-1-sulfonate]	~5 fold	1030 ± 240 nM	> 100000 nM			
CC(C)C[C@H](NC(=O)O[C@@H]1C[C@H]2CC[C@@H](C1)N2C(=O)OC(C)(C)C)C(=O)N[C@H](C=O)C[C@@H]1CCNC1=O [Compound 2g, tert-Butyl (1R,3s,5S)-3-((((S)-4-methyl-1-oxo-1-(((S)-1-oxo-3-((S)-2-oxopyrrolidin-3-yl)propan-2-yl)amino)pentan-2-yl)carbamoyl)oxy)-8-azabicyclo[3.2.1]octane-8-carboxylate]		1900 ± 140 nM	> 100000 nM			
CC(C)C[C@H](NC(=O)OCC12CC3CC(CC(C3)C1)C2)C(=O)N[C@H](C=O)C[C@H]1CCNC1=O [Compound 2k, ((3S,5S,7S)-Adamantan-1-yl)methyl((S)-4-methyl-1-oxo-1-(((S)-1-oxo-3-((S)-2-oxopyrrolidin-3-yl)propan-2-yl)amino)pentan-2-yl)carbamate]		180 ± 40 nM	> 100000 nM	55 ± 2 nM		
CC(C)C[C@H](NC(=O)OCC1CC2CCC1C2)C(=O)N[C@H](C=O)C[C@@H]1CCNC1=O (stereo partly drawn) [Compound 2f, Bicyclo[2.2.1]heptan-2-ylmethyl ((S)-4-methyl-1-oxo-1-(((S)-1-oxo-3-((S)-2-oxopyrrolidin-3-yl)propan-2-yl)amino)pentan-2-yl)carbamate]		140 ± 20 nM	> 100000 nM	63 ± 3 nM		
CC(C)C[C@H](NC(=O)OCCC12CC3CC(CC(C3)C1)C2)C(=O)N[C@H](C=O)C[C@H]1CCNC1=O [Compound 2m, 2-((3S,5S,7S)-Adamantan-1-yl)ethyl ((S)-4-methyl-1-oxo-1-(((S)-1-oxo-3-((S)-2-oxopyrrolidin-3-yl)propan-2-yl)amino)pentan-2-yl)carbamate]		270 ± 20 nM	> 100000 nM			
CC(C)C[C@H](NC(=O)OCC1CN(C(=O)OC(C)(C)C)C1)C(=O)N[C@H](C=O)C[C@H]1CCNC1=O [Compound 14b, Tert-butyl 3-(((((S)-4-methyl-1-oxo-1-(((S)-1-oxo-3-((R)-2-oxopyrrolidin-3-yl)propan-2-yl)amino)pentan-2-yl)carbamoyl)oxy)methyl)azetidine-1-carboxylate]					380 nM	> 100000 nM
CC(C)C[C@H](NC(=O)OC[C@@]12C[C@@H]3C[C@@H](C[C@@](O)(C3)C1)C2)C(=O)N[C@H](C=O)C[C@@H]1CCNC1=O [Compound 2n, ((1r,3R,5R,7S)-3-Hydroxyadamantan-1-yl)methyl ((S)-4-methyl-1-oxo-1-(((S)-1-oxo-3-((S)-2-oxopyrrolidin-3-yl)propan-2-yl)amino)pentan-2-yl)carbamate]	~5 fold	820 ± 190 nM	> 100000 nM			
[2H]C([2H])(OC(=O)N[C@@H](CC(C)C)C(=O)N[C@H](C=O)C[C@@H]1CCNC1=O)[C@@H]1C[C@@H]2C=CC[C@@H](C2)C1 [Compound 2d, ((1S,3S,5R)-Bicyclo[3.3.1]non-6-en-3-yl)methyl-d2 ((S)-4-methyl-1-oxo-1-(((S)-1-oxo-3-((S)-2-oxopyrrolidin-3-yl)propan-2-yl)amino)pentan-2-yl)carbamate]		280 ± 80 nM	> 100000 nM			
CC(C)C[C@H](NC(=O)OC1CC2CCC(C1)N2C(=O)OC(C)(C)C)C(=O)N[C@@H](C[C@H]1CCNC1=O)C(O)S(=O)(=O)O (stereo partly drawn) [Compound 3g, Sodium (2S)-2-((S)-2-(((((1R,3s,5S)-8-(tert-butoxycarbonyl)-8-azabicyclo[3.2.1]octan-3-yl)oxy)carbonyl)amino)-4-methylpentanamido)-1-hydroxy-3-((S)-2-oxopyrrolidin-3-yl)propane-1-sulfonate]		1710 ± 160 nM	> 100000 nM			
CC(C)C[C@H](NC(=O)OCC12CC3CC(CC(C3)C1)C2)C(=O)N[C@@H](C[C@H]1CCNC1=O)C(O)S(=O)(=O)O (stereo partly drawn) [Compound 3k, Sodium (2S)-2-((S)-2-(((((3S,5S,7S)-adamantan-1-yl)methoxy)carbonyl)amino)-4-methylpentanamido)-1-hydroxy-3-((S)-2-oxopyrrolidin-3-yl)propane-1-sulfonate]		150 ± 40 nM	> 100000 nM	53 ± 3 nM		
CC(C)C[C@H](NC(=O)OC1CC2CCC(C1)N2C(=O)OCc1ccccc1)C(=O)N[C@@H](C[C@H]1CCNC1=O)C(O)S(=O)(=O)O (stereo partly drawn) [Compound 3h, Sodium (2S)-2-((S)-2-(((((1R,3s,5S)-8-((benzyloxy)carbonyl)-8-azabicyclo[3.2.1]octan-3-yl)oxy)carbonyl)amino)-4-methylpentanamido)-1-hydroxy-3-((S)-2-oxopyrrolidin-3-yl)propane-1-sulfonate]		370 ± 30 nM	> 100000 nM			
[2H]C([2H])(OC(=O)N[C@@H](CC(C)C)C(=O)N[C@H](C=O)C[C@@H]1CCNC1=O)C12CCC(CCCCC)(CC1)CC2 [Compound 2j, (4-Pentylbicyclo[2.2.2]octan-1-yl)methyl-d2 ((S)-4-methyl-1-oxo-1-(((S)-1-oxo-3-((S)-2-oxopyrrolidin-3-yl)propan-2-yl)amino)pentan-2-yl)carbamate]		310 ± 30 nM	20000 ± 3000 nM			
CC(C)C[C@H](NC(=O)OCC1CC2C=CC1C2)C(=O)N[C@H](C=O)C[C@@H]1CCNC1=O (stereo partly drawn) [Compound 2e, Bicyclo[2.2.1]hept-5-en-2-ylmethyl ((S)-4-methyl-1-oxo-1-(((S)-1-oxo-3-((S)-2-oxopyrrolidin-3-yl)propan-2-yl)amino)pentan-2-yl)carbamate]		260 ± 50 nM	> 100000 nM			
CC(C)C[C@H](NC(=O)OC1CC2(CCN(C(=O)OC(C)(C)C)CC2)C1)C(=O)N[C@@H](C[C@H]1CCNC1=O)C(O)S(=O)(=O)O (stereo partly drawn) [Compound 7c, Sodium (2S)-2-((S)-2-((((7-(tert-butoxycarbonyl)-7-azaspiro[3.5]nonan-2-yl)oxy)carbonyl)amino)-4-methylpentanamido)-1-hydroxy-3-((R)-2-oxopyrrolidin-3-yl)propane-1-sulfonate]					80 nM	> 100000 nM
CC(C)C[C@H](NC(=O)O[C@@H]1C[C@H]2CC[C@@H](C1)N2C(=O)OCc1ccccc1)C(=O)N[C@H](C=O)C[C@@H]1CCNC1=O [Compound 2h, Benzyl (1R,3s,5S)-3-((((S)-4-methyl-1-oxo-1-(((S)-1-oxo-3-((S)-2-oxopyrrolidin-3-yl)propan-2-yl)amino)pentan-2-yl)carbamoyl)oxy)-8-azabicyclo[3.2.1]octane-8-carboxylate]		390 ± 20 nM	> 100000 nM			
CC(C)C[C@H](NC(=O)OCC1CC2CCC1C2)C(=O)N[C@@H](C[C@@H]1CCNC1=O)C(O)S(=O)(=O)O (stereo partly drawn) [Compound 3f, Sodium (2S)-2-((2S)-2-(((bicyclo[2.2.1]heptan-2-ylmethoxy)carbonyl)amino)-4-methylpentanamido)-1-hydroxy-3-((S)-2-oxopyrrolidin-3-yl)propane-1-sulfonate]		100 ± 10 nM	> 100000 nM	58 ± 2 nM		
CC(C)C[C@H](NC(=O)OC1CC2(CCN(C(=O)OC(C)(C)C)C2)C1)C(=O)N[C@@H](C[C@H]1CCNC1=O)C(O)S(=O)(=O)O (stereo partly drawn) [Compound 5c, Sodium (2S)-2-((S)-2-((((6-(tert-butoxycarbonyl)-6-azaspiro[3.4]octan-2-yl)oxy)carbonyl)amino)-4-methylpentanamido)-1-hydroxy-3-((R)-2-oxopyrrolidin-3-yl)propane-1-sulfonate]						> 100000 nM
[2H]C([2H])(OC(=O)N[C@@H](CC(C)C)C(=O)N[C@@H](C[C@@H]1CCNC1=O)C(O)S(=O)(=O)[O-])[C@@H]1C[C@@H]2C=CC[C@@H](C2)C1.[Na+] (stereo partly drawn) [Compound 3d, Sodium (2S)-2-((S)-2-(((((1S,3S,5R)-bicyclo[3.3.1]non-6-en-3-yl)methoxy-d2)carbonyl)amino)-4-methylpentanamido)-1-hydroxy-3-((S)-2-oxopyrrolidin-3-yl)propane-1-sulfonate]		300 ± 30 nM	> 100000 nM			
CC(C)C[C@H](NC(=O)OCC1CN(S(C)(=O)=O)C1)C(=O)N[C@@H](C[C@H]1CCNC1=O)C(O)S(=O)(=O)O (stereo partly drawn) [Compound 17c, Sodium (2S)-1-hydroxy-2-((S)-4-methyl-2-((((1-(methylsulfonyl)azetidin-3-yl)methoxy)carbonyl)amino)pentanamido)-3-((R)-2-oxopyrrolidin-3-yl)propane-1-sulfonate]						> 100000 nM
CC(C)C[C@H](NC(=O)OCCC12CC3CC(CC(C3)C1)C2)C(=O)N[C@@H](C[C@H]1CCNC1=O)C(O)S(=O)(=O)O (stereo partly drawn) [Compound 3m, Sodium (2S)-2-((S)-2-(((2-((3S,5S,7S)-adamantan-1-yl)ethoxy)carbonyl)amino)-4-methylpentanamido)-1-hydroxy-3-((S)-2-oxopyrrolidin-3-yl)propane-1-sulfonate]		250 ± 40 nM	> 100000 nM			
CC(C)C[C@H](NC(=O)OCC1CC2C=CC1C2)C(=O)N[C@@H](C[C@@H]1CCNC1=O)C(O)S(=O)(=O)O (stereo partly drawn) [Compound 3e, Sodium (2S)-2-((2S)-2-(((bicyclo[2.2.1]hept-5-en-2-ylmethoxy)carbonyl)amino)-4-methylpentanamido)-1-hydroxy-3-((S)-2-oxopyrrolidin-3-yl)propane-1-sulfonate]		280 ± 30 nM	> 100000 nM			
